The supplement of paper PMC11451515

Tested on: NOMO1
Experiment: cell viability relative to DMSO control; higher = less cytotoxic
Conditions: 48 h
Summary of the method: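 Viability, reported as a per-plate percentage of DMSO wells with cell-free wells as background, came from CellTiter-Glo One luminescence. Reading took place after 48 h at 37°C. Before that, NOMO1 or SEM (500 cells/well) or P12-Ichikawa (1000 cells/well) leukemia cells, adapted for at least four passages in each medium, were seeded in 1536-well plates (5 μl) and pin-dosed with library compounds in DMSO, 47 μM to 0.79 nM over 11 threefold points.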

[1] = HPLM + 10% dialyzed FBS, 0.000781 µM
[2] = HPLM + 10% dialyzed FBS, 0.00234 µM
[3] = HPLM + 10% dialyzed FBS, 0.00702 µM
[4] = HPLM + 10% dialyzed FBS, 0.0211 µM
[5] = HPLM + 10% dialyzed FBS, 0.0632 µM
[6] = HPLM + 10% dialyzed FBS, 0.19 µM
[7] = HPLM + 10% dialyzed FBS, 0.569 µM
[8] = HPLM + 10% dialyzed FBS, 1.71 µM
[9] = HPLM + 10% dialyzed FBS, 5.12 µM
[10] = HPLM + 10% dialyzed FBS, 15.4 µM
[11] = HPLM + 10% dialyzed FBS, 46.1 µM
[12] = RPMI 5 mM glucose + 10% FBS, 0.000781 µM
[13] = RPMI 5 mM glucose + 10% FBS, 0.00234 µM
[14] = RPMI 5 mM glucose + 10% FBS, 0.00702 µM
[15] = RPMI 5 mM glucose + 10% FBS, 0.0211 µM
[16] = RPMI 5 mM glucose + 10% FBS, 0.0632 µM
[17] = RPMI 5 mM glucose + 10% FBS, 0.19 µM
[18] = RPMI 5 mM glucose + 10% FBS, 0.569 µM
[19] = RPMI 5 mM glucose + 10% FBS, 1.71 µM
[20] = RPMI 5 mM glucose + 10% FBS, 5.12 µM
[21] = RPMI 5 mM glucose + 10% FBS, 15.4 µM
[22] = RPMI 5 mM glucose + 10% FBS, 46.1 µM
[23] = RPMI 5 mM glucose + 10% dialyzed FBS, 0.000781 µM
[24] = RPMI 5 mM glucose + 10% dialyzed FBS, 0.00234 µM
[25] = RPMI 5 mM glucose + 10% dialyzed FBS, 0.00702 µM
[26] = RPMI 5 mM glucose + 10% dialyzed FBS, 0.0211 µM
[27] = RPMI 5 mM glucose + 10% dialyzed FBS, 0.0632 µM
[28] = RPMI 5 mM glucose + 10% dialyzed FBS, 0.19 µM
[29] = RPMI 5 mM glucose + 10% dialyzed FBS, 0.569 µM
[30] = RPMI 5 mM glucose + 10% dialyzed FBS, 1.71 µM
[31] = RPMI 5 mM glucose + 10% dialyzed FBS, 5.12 µM
[32] = RPMI 5 mM glucose + 10% dialyzed FBS, 15.4 µM
[33] = RPMI 5 mM glucose + 10% dialyzed FBS, 46.1 µM

SMILES	cell viability [1]	cell viability [2]	cell viability [3]	cell viability [4]	cell viability [5]	cell viability [6]	cell viability [7]	cell viability [8]	cell viability [9]	cell viability [10]	cell viability [11]	cell viability [12]	cell viability [13]	cell viability [14]	cell viability [15]	cell viability [16]	cell viability [17]	cell viability [18]	cell viability [19]	cell viability [20]	cell viability [21]	cell viability [22]	cell viability [23]	cell viability [24]	cell viability [25]	cell viability [26]	cell viability [27]	cell viability [28]	cell viability [29]	cell viability [30]	cell viability [31]	cell viability [32]	cell viability [33]
CCCCOc1ccc(C(=O)Nc2ccc(F)cc2F)cc1	85.8%	90.8%	91.4%	96.3%	89.2%	85.6%	103%	104%	92.2%	97.8%	51%	81.7%	87.5%	81.5%	89.5%	86.3%	94.7%	88.1%	93.8%	92.9%	88.3%	83%	79.5%	89.2%	76.8%	97.5%	89.6%	95.4%	91.9%	96.5%	97.8%	88.5%	92%
COC1=CC=C(C=C1)C/2=C/OC3=CC(=CC=C3C2=O)O	108%	125%	114%	119%	116%	119%	119%	109%	83.1%	67.9%	43.1%	123%	111%	121%	115%	132%	114%	106%	118%	102%	101%	71.1%	122%	120%	113%	106%	133%	121%	101%	105%	111%	104%	98.4%
N#Cc1c(C2CCNCC2)cc(-c2c(O)cccc2OCC2CC2)nc1N	110%	116%	126%	115%	103%	113%	121%	104%	105%	90.1%	99.1%	102%	115%	104%	118%	111%	104%	113%	102%	93.6%	88.4%	80.9%	115%	101%	117%	116%	111%	105%	117%	104%	94.2%	88.3%	74.4%
Cc1c(OCC(F)(F)F)ccnc1C[S+]([O-])c1nc2ccccc2[nH]1 (configuration not stated)	100%	100%	107%	96.6%	108%	118%	122%	97.7%	113%	122%	110%	110%	114%	105%	113%	105%	108%	119%	103%	118%	108%	117%	102%	111%	111%	109%	113%	113%	115%	120%	128%	113%	123%
CO[C@@H]1[C@H](N(C)C(=O)c2ccccc2)C[C@H]2O[C@]1(C)n1c3ccccc3c3c4c(c5c6ccccc6n2c5c31)C(=O)NC4	103%	104%	128%	116%	153%	134%	135%	114%	80%	54.5%	49.5%	96.7%	116%	107%	114%	121%	115%	118%	105%	87.1%	50.9%	44.3%	117%	113%	123%	111%	110%	105%	114%	93.2%	80.3%	50.8%	49.5%
CCOc1cc2c(c(F)c1OCC)C(=N)N(CC(=O)c1cc(N3CCOCC3)c(OC)c(C(C)(C)C)c1)C2	98.4%	121%	118%	138%	115%	148%	131%	125%	142%	127%	118%	109%	112%	104%	109%	130%	108%	123%	121%	122%	135%	126%	113%	122%	121%	129%	131%	124%	124%	139%	141%	138%	130%
CC1=C(/C=C/C(C)=C/C=C/C(C)=C/C(=O)Nc2ccc(O)cc2)C(C)(C)CCC1	63.6%	82.3%	97.9%	102%	87.5%	81.5%	94.6%	80.6%	53.6%	25.9%	4.95%	72.4%	85.1%	74.5%	96.5%	91%	79.9%	95%	78.8%	63%	34%	4.45%	78%	76.4%	77.8%	92.9%	90.9%	89.7%	86%	85.5%	55.8%	23.6%	3.24%
CCCCCCCCCCCCCCCC(=O)OC[C@@H](NC(=O)C(Cl)Cl)[C@H](O)c1ccc([N+](=O)[O-])cc1	105%	123%	126%	143%	118%	141%	140%	144%	141%	144%	142%																						
